Assay results as given in the Deep4Chem optical property database.

Test: solvent given as SMILES

With `COc1cc(OC)c2cc(-c3ccc(-c4cc5c(OC)cc(OC)cc5oc4=O)cc3)c(=O)oc2c1` the emission maximum (in ClC(Cl)Cl) was 446 nm.
`CCN(CC)c1ccc2cc(-c3nc4cc(C(=O)Nc5ccc(C)cc5[N+](=O)[O-])ccc4o3)c(=O)oc2c1` gave an emission maximum (in ClCCl) of 496 nm.
Compound `COc1cc2c(cc1OC)C1=C[C@H](c3ccc(C)cc3)C3(C(C#N)=C(C#N)N1CC2)c1cc(Cl)ccc1-c1ccc(Cl)cc13` has an emission maximum (in ClCCl) of 402 nm.
For `CCOC(=O)c1c(-c2cc3ccc(OC)cc3oc2=O)nn(-c2ccccc2)c1C(=O)OCC`, the emission maximum (in ClCCl) was 421 nm.
In the case of `Fc1c(F)c(-n2c3ccccc3c3ccccc32)c(F)c(F)c1-c1nnc(-c2ccccc2)o1`, the emission maximum (in Cc1ccccc1) is reported as 444 nm.
Compound `c1ccc(-c2nc(-c3ccc(-c4ccc(N(c5ccccc5)c5ccccc5)cc4)cn3)oc2-c2ccccc2)cc1` has an emission maximum (in C1CCOC1) of 458 nm, an emission maximum (in C1COCCO1) of 454 nm and an emission maximum (in CC#N) of 507 nm. For the same compound, the emission maximum (in CC(C)=O) was 495 nm, the emission maximum (in CC(C)OC(C)C) was 434 nm and the emission maximum (in CCCCCC) was 399 nm. It also gave an emission maximum (in CCCCOCCCC) of 431 nm, an emission maximum (in CCN(CC)CC) of 422 nm and an emission maximum (in CCOC(C)=O) of 456 nm. It also gave an emission maximum (in CCOCC) of 440 nm, an emission maximum (in Cc1ccccc1) of 435 nm and an emission maximum (in c1ccccc1) of 438 nm.
In the case of `CCOc1cccc2c1O[B-](F)(F)[n+]1c3c(c4c(c1-2)-c1ccccc1CC4)-c1ccccc1CC3`, the emission maximum (in ClCCl) is reported as 483 nm.
With `CN(C)c1ccc2c(-c3cc(N)ccc3C(=O)[O-])c3ccc(=[N+](C)C)cc-3oc2c1` the emission maximum (in CCO) was 567 nm and the emission maximum (in O) was 574 nm.
Compound `Cc1ccc(-c2sc(/C(C#N)=C/c3ccc(C#N)cc3)nc2-c2ccc(Cl)cc2)cc1` has an emission maximum (in CC#N) of 535 nm.
Compound `Fc1c(F)c(-n2c3ccccc3c3ccccc32)c(F)c(-n2c3ccccc3c3ccccc32)c1-c1nnc(-c2ccccc2)o1` has an emission maximum (in Cc1ccccc1) of 449 nm.
For `CCCN1/C(=C/C=C(/C=C/c2sc3ccccc3[n+]2CCC)c2ccc([N+](=O)[O-])cc2)Sc2ccccc21`, the emission maximum (in CO) was 663 nm, the emission maximum (in CS(C)=O) was 673 nm and the emission maximum (in O) was 669 nm.
Compound `CCCCN1\C(=C/C=C/C=C/C2=[N+](CCCC)c3ccc4ccccc4c3C2(C)C)C(C)(C)c2c1ccc1ccccc21` has an emission maximum (in C1CCOC1) of 710 nm, an emission maximum (in CC#N) of 698 nm and an emission maximum (in CC(C)=O) of 701 nm. For the same compound, the emission maximum (in CCO) was 704 nm, the emission maximum (in CN(C)C=O) was 705 nm and the emission maximum (in CO) was 701 nm. For the same compound, the emission maximum (in CS(C)=O) was 709 nm and the emission maximum (in ClCCl) was 713 nm.
`COc1ccc2cc(C3=[N+]4C(=Nc5c(-c6ccc7ccccc7c6)cc(-c6ccc7cc(OC)ccc7c6)n5[B-]4(F)F)C(c4ccc5ccccc5c4)=C3)ccc2c1` showed an emission maximum (in ClCCl) of 754 nm.
`c1cc2c3c(c1)OCCCCCCOc1cccc(c1-c1c4ccccc4c-3c3ccccc13)OCCCCCCO2` gave an emission maximum (in C1CCCCC1) of 429 nm.
Work on `COc1ccc(C(=Cc2ccc(/C=C/c3ccc(C#N)cc3)cc2)c2ccc(OC)cc2)cc1` yielded an emission maximum (in C1CCOC1) of 467 nm.
For `CCCCCc1ccc(C#Cc2cc(C#Cc3ccc(CCCCC)cc3)c3ccc4c(C(=O)c5ccccc5)cc(C#Cc5ccc(CCCCC)cc5)c5ccc2c3c54)cc1`, the emission maximum (in ClCCl) was 511 nm.
`CCn1c2ccccc2c2cc(/C=C/c3cc(/C=C/c4ccc5c(c4)c4ccccc4n5CC)[n+](CCCS(=O)(=O)[O-])c(/C=C/c4ccc5c(c4)c4ccccc4n5CC)c3)ccc21` gave an emission maximum (in C1CCOC1) of 605 nm, an emission maximum (in CC#N) of 611 nm and an emission maximum (in CC(C)=O) of 610 nm. For the same compound, the emission maximum (in Cc1ccccc1) was 599 nm.
`F[B-]1(F)n2c(ccc2-c2cccs2)C(c2ccc(Br)cc2)=C2C=CC(c3cccs3)=[N+]21` gave an emission maximum (in ClC(Cl)Cl) of 643 nm.
`CC1=C(Cl)C(/C=C/c2ccc3c(c2)c2ccccc2n3Cc2cn(CCC[P+](c3ccccc3)(c3ccccc3)c3ccccc3)nn2)=[N+]2C1=C(c1ccc(I)cc1)c1c(C)c(Cl)c(C)n1[B-]2(F)F` showed an emission maximum (in CCO) of 650 nm.
Compound `O=C1OC(=O)C2=C1[Se][C@]13C2=C[C@H](c2ccccc21)c1ccccc13` has an emission maximum (in ClCCl) of 517 nm.
In the case of `CSc1ccc2c(c1)N(CCCN(C)C)c1ccccc1S2`, the emission maximum (in CC#N) is reported as 460 nm, the emission maximum (in CO) is reported as 455 nm and the emission maximum (in O) is reported as 475 nm.
For `CC[n+]1ccc(/C=C/c2cc(OC)c(C=O)cc2OC)cc1`, the emission maximum (in C1CCOC1) was 557 nm, the emission maximum (in CC#N) was 566 nm and the emission maximum (in CN(C)C=O) was 565 nm. It also gave an emission maximum (in Cc1ccccc1) of 554 nm, an emission maximum (in ClCCl) of 561 nm and an emission maximum (in O) of 558 nm.
Compound `c1ccc2c3c(ccc2c1)-c1c2ccccc2cc2cccc-3c12` has an emission maximum (in CCCCCCC) of 603 nm.
With `O=C1c2cccc3c(NCc4ccccn4)c4ccccc4c(c23)C(=O)N1Cc1ccccn1` the emission maximum (in C1CCOC1) was 609 nm, the emission maximum (in CCCCCC) was 594 nm and the emission maximum (in CCO) was 615 nm. For the same compound, the emission maximum (in Cc1ccccc1) was 606 nm and the emission maximum (in ClCCl) was 611 nm.
With `COC(=O)COc1ccc(/C=C/C2=[N+]3C(=C(c4ccc(N(C)C)cc4)c4c(C)cc(C)n4[B-]3(F)F)C(C)=C2)cc1` the emission maximum (in CO) was 580 nm.
With `CN(C)c1ccc(C2=Cc3cccc[n+]3[B-](F)(F)O2)cc1` the emission maximum (in C1CCOC1) was 499 nm, the emission maximum (in C1COCCO1) was 486 nm and the emission maximum (in CC1CCCCC1) was 447 nm. For the same compound, the emission maximum (in CC#N) was 528 nm, the emission maximum (in CCOC(C)=O) was 499 nm and the emission maximum (in CCOCC) was 477 nm. For the same compound, the emission maximum (in CN(C)C=O) was 530 nm, the emission maximum (in CO) was 517 nm and the emission maximum (in COC(C)=O) was 514 nm. The emission maximum (in ClC(Cl)Cl) was 490 nm.
With `O=C1C(=Cc2ccc(Br)cc2)Oc2cccc(O)c21` the emission maximum (in CC#N) was 487 nm.
For `CCCCCCn1c(=O)c2c3[nH]c4ccccc4[nH]c3c3c(=O)n(CCCCCC)c(=O)c3c2c1=O`, the emission maximum (in ClCCl) was 641 nm.
`CCCCCCCCCCCCc1sc(CCCCCCCCCCCC)c2c3ccsc3c3sccc3c12` showed an emission maximum (in ClC(Cl)Cl) of 425 nm.
With `Cc1c2c(nc3ccccc13)-c1cc3c(cc1CC2)-c1nc2ccccc2c(C)c1CC3` the emission maximum (in ClC(Cl)Cl) was 383 nm.
Work on `CCCC1=Cc2nc1ccc1[nH]c(cc1CCC)c1nc(ccc3[nH]c2cc3CCC)C(CCC)=C1` yielded an emission maximum (in Cc1ccccc1) of 641 nm.
In the case of `COc1ccc(-n2nc(C(=O)N3CCCC3)c(N3CCCC3)n2)cc1`, the emission maximum (in CC#N) is reported as 412 nm, the emission maximum (in CCCCCC) is reported as 405 nm and the emission maximum (in CCO) is reported as 410 nm. It also gave an emission maximum (in CN(C)C=O) of 396 nm and an emission maximum (in ClC(Cl)Cl) of 411 nm.
Compound `O=C([O-])c1cc(N2C(=O)C=CC2=O)ccc1-c1c2cc(F)c(=O)cc-2oc2cc([O-])c(F)cc12` has an emission maximum (in O) of 520 nm.
Work on `CC(C)[Si](C#Cc1cc2c3c(c1)c(=C1c4ccccc4Sc4ccccc41)c1cc(C#C[Si](C(C)C)(C(C)C)C(C)C)cc4c1N3c1c(cc(C#C[Si](C(C)C)(C(C)C)C(C)C)cc1c4=C1c3ccccc3Sc3ccccc31)c2=C1c2ccccc2Sc2ccccc21)(C(C)C)C(C)C` yielded an emission maximum (in ClCCl) of 511 nm.
Work on `COc1ccc2c(c1)c1cc(OC)ccc1n2-c1cccc(-n2c3ccc(OC)cc3c3cc(OC)ccc32)c1C#N` yielded an emission maximum (in Cc1ccccc1) of 460 nm and an emission maximum (in O=P(c1ccccc1)(c1ccccc1)c1ccccc1Oc1ccccc1P(=O)(c1ccccc1)c1ccccc1) of 462 nm.
Compound `O=c1c2ccccc2sc2ccc(-n3c4ccccc4c4ccccc43)cc12` has an emission maximum (in C1CCOC1) of 452.5 nm, an emission maximum (in CCCCCC) of 436 nm and an emission maximum (in Cc1ccccc1) of 447.5 nm. The emission maximum (in ClC(Cl)Cl) was 486.5 nm and the emission maximum (in ClCCl) was 483.5 nm.
`CC(C)(C)c1ccc2oc3nc4oc5ccc(-n6c7ccc(C(C)(C)C)cc7c7cc(C(C)(C)C)ccc76)cc5c4cc3c2c1` showed an emission maximum (in ClC(Cl)Cl) of 444 nm.
`COc1cc(/C=C/c2ncc(-c3ccncc3)o2)cc(OC)c1OC` showed an emission maximum (in ClCCl) of 463 nm.
`CCN(CC)c1ccc2cc(/C=C/C(=C(C#N)C#N)c3ccc4c(c3)c3ccccc3n4CC)c(=O)oc2c1` gave an emission maximum (in CC(C)=O) of 614 nm, an emission maximum (in CCOC(C)=O) of 590 nm and an emission maximum (in CN(C)C=O) of 629 nm. The emission maximum (in CS(C)=O) was 638 nm, the emission maximum (in Cc1ccccc1) was 571 nm and the emission maximum (in ClCCl) was 604 nm.
